# From ChEMBL document CHEMBL5584355, “Harnessing Nitric Oxide-Donating Benzofuroxans for Targeted Inhibition of Carbonic Anhydrase IX in Cancer” (J Med Chem, 2024)
# Tests used:
# [1] = target: Carbonic anhydrase 9 (Homo sapiens, UniProt Q16790); assay: Inhibition of human recombinant CA9 by phenol red dye based stopped flow CO2 hydration assay
# [2] = target: Carbonic anhydrase 1 (Homo sapiens, UniProt P00915); assay: Inhibition of human recombinant CA1 by phenol red dye based stopped flow CO2 hydration assay
# Carbonic anhydrase 1, sequence (P00915 whole entry): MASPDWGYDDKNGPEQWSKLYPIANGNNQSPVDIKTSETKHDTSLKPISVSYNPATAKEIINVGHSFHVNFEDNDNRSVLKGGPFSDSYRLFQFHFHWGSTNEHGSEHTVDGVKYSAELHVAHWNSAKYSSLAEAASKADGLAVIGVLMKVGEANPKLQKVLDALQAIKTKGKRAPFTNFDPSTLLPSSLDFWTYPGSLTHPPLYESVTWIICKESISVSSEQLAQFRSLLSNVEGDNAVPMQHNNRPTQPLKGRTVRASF
# [3] = Toxicity in female C57BL6/J mouse assessed as hematic pH at 10 mg/kg, ip administered daily for 2 weeks and measured 1 hr post last dose (reference value: 7.1); assay type: organism-based; details: in vivo, 336 h
# [4] = system: HEK293; assay: Cytotoxicity against HEK293 cells assessed as inhibition of cell growth at 46 uM by celltiter-glo assay; assay type: toxicity, cell-based; details: human, hek293, 46 µM
# [5] = target: Carbonic anhydrase 2 (Homo sapiens, UniProt P00918); assay: Inhibition of human recombinant CA2 by phenol red dye based stopped flow CO2 hydration assay
# [6] = target: Carbonic anhydrase 12 (Homo sapiens, UniProt O43570); assay: Inhibition of human recombinant CA12 by phenol red dye based stopped flow CO2 hydration assay
# Carbonic anhydrase 12, sequence (O43570 whole entry): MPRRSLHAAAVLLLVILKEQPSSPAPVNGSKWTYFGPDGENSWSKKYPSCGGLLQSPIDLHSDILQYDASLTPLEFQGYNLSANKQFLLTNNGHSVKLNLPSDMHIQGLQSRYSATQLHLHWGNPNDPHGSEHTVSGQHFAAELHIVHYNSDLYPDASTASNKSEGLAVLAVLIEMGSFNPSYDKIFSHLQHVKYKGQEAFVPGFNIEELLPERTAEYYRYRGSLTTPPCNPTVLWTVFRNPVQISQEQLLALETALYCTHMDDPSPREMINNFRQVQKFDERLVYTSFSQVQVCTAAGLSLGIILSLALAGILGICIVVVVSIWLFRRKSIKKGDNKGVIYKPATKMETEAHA
# [7] = system: HEK293; assay: Cytotoxicity against HEK293 cells assessed as inhibition of cell growth at 77 uM by celltiter-glo assay; assay type: toxicity, cell-based; details: human, hek293, 77 µM
Structure (SMILES),Ki [1] [nM],Ki [2] [nM],further results
NS(=O)(=O)c1cccc(NC(=O)c2ccc3c(c2)no[n+]3[O-])c1,41.5,7660,
O=C(NCCOc1ccc2ccc(=O)oc2c1)c1ccc2c(c1)no[n+]2[O-],,> 10000,
O=C(NCCOc1ccc2oc(=O)ccc2c1)c1ccc2c(c1)no[n+]2[O-],23.6,,
NS(=O)(=O)c1ccc(CCN(Cc2ccccc2)C(=O)c2ccc3c(c2)no[n+]3[O-])cc1,10.4,618,pH [3]: 6.9; Activity [4]: Non-Toxic
NS(=O)(=O)c1ccc(NC(=O)c2ccc3c(c2)no[n+]3[O-])cc1,69.7,792,
NS(=O)(=O)c1cc(C(=O)O)c(NCc2ccco2)cc1Cl [FUROSEMIDE],,,pH [3]: 7.05
NS(=O)(=O)c1ccc(CNC(=O)c2ccc3c(c2)no[n+]3[O-])cc1,37.9,83.1,
O=C(Oc1ccc2ccc(=O)oc2c1)c1ccc2c(c1)no[n+]2[O-],304,,
NS(=O)(=O)c1ccc(O)c(NC(=O)c2ccc3c(c2)no[n+]3[O-])c1,61.1,8450,
NS(=O)(=O)c1ccc(CCNC(=O)c2ccc3c(c2)no[n+]3[O-])cc1,12.6,445,Ki [5]: 90.1 nM; Ki [6]: 26.1 nM
O=C(OCCOc1ccc2ccc(=O)oc2c1)c1ccc2c(c1)no[n+]2[O-],112,> 10000,
NS(=O)(=O)c1ccc(CCN(Cc2ccc(F)cc2)C(=O)c2ccc3c(c2)no[n+]3[O-])cc1,,,Activity [7]: Non-Toxic
O=C(O)c1ccc2c(c1)no[n+]2[O-],2650,> 10000,Ki [5]: 8730 nM; Ki [6]: 995 nM
NS(=O)(=O)c1ccc(OC(=O)c2ccc3c(c2)no[n+]3[O-])cc1,38.7,736,
O=C(Oc1ccc2oc(=O)ccc2c1)c1ccc2c(c1)no[n+]2[O-],15.8,> 10000,
NS(=O)(=O)c1ccc(CCN(Cc2ccco2)C(=O)c2ccc3c(c2)no[n+]3[O-])cc1,23.1,602,
N#CCCN(CCc1ccc(S(N)(=O)=O)cc1)C(=O)c1ccc2c(c1)no[n+]2[O-],20.3,,
O=C(OCCCOc1ccc2ccc(=O)oc2c1)c1ccc2c(c1)no[n+]2[O-],,> 10000,
O=C(OCCCOc1ccc2oc(=O)ccc2c1)c1ccc2c(c1)no[n+]2[O-],48.5,,
NS(=O)(=O)c1ccc(CCN(CCc2ccccc2)C(=O)c2ccc3c(c2)no[n+]3[O-])cc1,14.9,831,
